# Measured values from patent US11160277B2, “Use of cholinium lysinate as an herbicide” (priority 2019, dated 2021).
# “Also recorded” adds a separate entry of the source.
# Assays:
# Arabidopsis thaliana = experiment: Arabidopsis seedling root architecture screen on vertical agar plates; format: in vivo; conditions: for lateral root initiation (effect of treatment) / primary root growth (effect of treatment): 6 days of treatment, concentrations tested
# Text: An initial dose-responded for Arabidopsis seeding growth across multiple orders of magnitude in concentration is developed, and then examined sub-lethal concentrations in greater detail. Plants are germinated and grown vertically on transparent agar plates until the emergence of the first set of true leaves (6-8 days), transferred to fresh plates with or without the compound of interest, and imaged at 0 and 6 days after transfer. Finally, a semi-automated image analysis method is used to score primary root growth and total lateral root number, common phenotypes in plant developmental biology (Lobet, Pagès, and Draye 2011).
# Arabidopsis ecotype Col-0 seeds are obtained from the Arabidopsis Biological Resource Center (ABRC). Seeds are surface sterilized by a brief wash in 70% (v/v) ethanol followed by incubation in 30% (v/v) sodium hypochlorite (commercial bleach) for 15 minutes. Seeds are subsequently rinsed 5 times in sterile water, and sown on ½ Murashige and Skoog (MS) agar. Seeds are stratified (2 days, 4° C. in the dark) before transfer to a growth chamber under a 10 h light:14 h dark (22° C.). Following germination, plants are grown until the appearance of the first set of true leaves (˜6 days) prior to transfer to fresh test or control agar. […] The change in root length is determined from the primary root length at transfer subtracted from the primary root length after 6 days of treatment.
# (§1) Rhizobacterial biomass for root inoculation experiments is generated by cultivating individual isolates at 30° C. in LB supplemented with 1% (w/v) dextrose, shaking at 200 RPM. Overnight cultures are diluted to an OD600 of 0.1 in fresh media then grown under the same conditions to an OD600 of 0.7. Pellets are centrifuged (2000 r.c.f.) for 10 min at room temperature, then resuspended in 1/10 volume sterile water. Plants are inoculated by momentarily submerging their roots into cell resuspensions, or in sterile water for mock-inoculated controls. Plants are transferred to fresh ½ MS agar plates immediately post-inoculation and grown as before.
# (§2) D-limonene, α-pinene, protocatechuate, p-coumarate, [C2C1im][OAc], or [Ch][Lys] are dissolved in molten ½ MS media where indicated. 1.2 M stock solutions of p-coumarate and 1.5 M stock solutions of protocatechuate are prepared in dimethylsulfoxide (DMSO) and ethanol, respectively, before their addition to growth media.
# (§3) Plants are lit from the sides and photographed using a Canon 550D camera; images are saved as JPEG files for further analysis. The contrast is adjusted to maximize root visibility, but any adjustments are applied uniformly. Root growth is quantified using ImageJ (Schneider, Rasband, and Eliceiri 2012) with the SmartRoot plugin using default parameters (Lobet, Pages, and Draye 2011).
# A. rhizogenes = experiment: Microbial growth in liquid culture (A. rhizogenes); format: cell-based; conditions: for microbial growth with the compound as sole carbon source: M9 minimal media
# Description: (§4) Whether inoculation with rhizobacteria alters the effect of the test compounds on plant growth is next tested. Two microbes, A. rhizogenes and Acinetobacter sp.
# Whether either [Ch][Lys] or [C2C1im][OAc] has an effect on A. rhizogenes is tested by growing a liquid culture in minimal media (M9, which contains only salts and nitrogen) supplemented with either 0.1 mM [Ch][Lys], 1 mM [C2C1im][OAc], or 1% w/v dextrose as the sole carbon source is tested.
# Choline, for instance, can be used as a precursor to the compatible solute glycine betaine in a process dependent on two genes, betA and betB, both of which are present in the A. rhizogenes genome (Levy et al. 2018). Glycine betaine is additionally known to improve the salt tolerance of both plants and microbes (Riou and Le Rudulier 1990; Hayashi et al. 1997). Therefore, whether [Ch][Lys] improves the salt tolerance of A. rhizogenes by growing the microbe in M9 supplemented with 1% w/v dextrose and either 0.1 mM [Ch][Lys], 400 mM NaCl, or both, is tested.
# (§5) Microbial strains are maintained in glycerol stocks stored at −80° C. Media used are Lysogeny broth (LB: 10 g/L tryptone, 5 g/L yeast extract, and 5 g/L NaCl) or M9 minimal media (M9: 6.8 g/L Na2HPO4, 3 g/L KH2PO4, 1 g/L NH4Cl, 0.5 g/L NaCl, 0.12 g/L MgSO4) as indicated. Liquid pre-cultures are inoculated with colonies from LB agar plates and grown overnight at 30° C., shaking at 200 RPM. Precultures are back-diluted to an OD600 0.1 into fresh media and grown until OD600 0.6, and then 2 μL per well is used to inoculate 96 well microtiter plates in a total volume of 100 μL of the media and treatment conditions indicated. Optical density is tracked at a wavelength of 600 nm using a Synergy 4 plate reader (BioTek Instruments) kept at 30° C. and shaking on “high” setting.
# Acinetobacter sp. 01 = experiment: Microbial growth in liquid culture (Acinetobacter sp. 01); format: cell-based
# Description: as §4, §5
# [1] = system: mammals, fish, and microbes; conditions: reported (Sun et al. 2014); cited from earlier work
# Arabidopsis roots = conditions: 0.1 mM
# Description: FIG. 4G. […] Representative fluorescent microscopy images of Arabidopsis roots following propidium iodide staining. I: Control; II: 0.1 mM [Ch][Lys]; III: inoculation with A. rhizogenes; IV: 0.1 mM [Ch][Lys] and A. rhizogenes. The scale bar=200 μm.
# Seedlings are inoculated or chemically treated as previously described. After the treatment period roots are gently washed in sterile water and the cell walls are stained for 1 min in […] propidium iodide (PI, Sigma), then briefly rinsed in sterile water. Cellular morphology is determined using a Zeiss LSM 710 confocal microscope with PI fluorescence emission at 550-680 nm and 488 nm excitation.
# Sorghum bicolor = experiment: Sorghum seedling root growth on vertical agar plates; format: in vivo; conditions: for effect on seedlings transferred to solid media: similar results as Arabidopsis; for mean crown root growth / mean lateral root growth: 5 mM [Ch][Lys], 8 days
# Text: Arabidopsis is useful as a model system because of its fast generation time, ease of handling, and the availability of relevant genetic tools. The effects of these treatments on a second plant species of economic relevance are compared. Sorghum is selected, since it is both evolutionarily distant from Arabidopsis, but also an agronomically important plant for food, forage, and biomass, and is cultivated over 3,300,000 ha in the United States and 40,000,000 ha globally (Langholtz, Stokes B. J., and Eaton 2016).
# Sorghum cultivar BTx623 seeds are a kind gift from Dr. Jeff Dahlberg, UCANR. Seeds are surface sterilized by rinsing 5 times in sterile water, briefly washing in 70% (v/v) ethanol+0.01% (v/v) Triton-X 100 and incubating in bleach+0.01% (v/v) Triton-X 100 on a shaker for 20 minutes. They are then rinsed in sterile water a further 3 times, sown on plates, and grown as above (although without stratification).
# as §1, §2, §3
# [2] = 1 mM protocatechuate, inoculated with A. rhizogenes
# [3] = 1 mM protocatechuate, uninoculated
# [4] = 0.1 mM [Ch][Lys], inoculated with A. rhizogenes, 6 days
# [5] = 0.1 mM [Ch][Lys], uninoculated, 6 days
compound,measurement,setting,value
CC1=CCC2CC1C2(C)C (stereo not drawn) [α-pinene],lateral root initiation (effect of treatment),Arabidopsis thaliana; uninoculated,dose dependent reduction
same,primary root growth (effect of treatment),Arabidopsis thaliana; uninoculated,dose dependent reduction
C=C(C)C1CC=C(C)CC1 [D-limonene],plants showing complete inhibition of primary root growth,Arabidopsis thaliana; regardless of the concentration tested,at least 20%
same,lateral root growth,"Arabidopsis thaliana; uninoculated, 6 days",unaffected
same,changes in root architecture / dose-response,"Arabidopsis thaliana; uninoculated, between and within plates",inconsistent changes in root architecture; also recorded: no dose-response relationship was obvious
O=C(O)c1ccc(O)c(O)c1 [protocatechuate],"primary root curvature, median skew to the right from that of untreated plants",Arabidopsis thaliana; 1 mM,200
same,mean lateral root number (lateral root initiation),Arabidopsis thaliana; [2],2.214
same,mean primary root growth,Arabidopsis thaliana; [2],0.631 cm
same,mean lateral root number (lateral root initiation),Arabidopsis thaliana; [3],7.989
same,mean primary root growth,Arabidopsis thaliana; [3],2.293 cm
same,lateral root initiation,"Arabidopsis thaliana; 1 mM, uninoculated, 6 days",increase lateral root initiation
same,lateral root growth,"Arabidopsis thaliana; uninoculated, 6 days",enhanced
same,primary root growth (effect of treatment),Arabidopsis thaliana; uninoculated,reduce primary root growth at all concentrations tested
O=C(O)/C=C/c1ccc(O)cc1 [p-coumarate],lateral root initiation (effect of treatment),Arabidopsis thaliana; uninoculated,dose dependent reduction
same,primary root growth (effect of treatment),Arabidopsis thaliana; uninoculated,dose dependent reduction
"[Cl-].[Na+] [NaCl, reference compound]",A. rhizogenes growth rate,"A. rhizogenes; M9 + 1% w/v dextrose, 400 mM NaCl",reduces the A. rhizogenes growth rate
"CCn1cc[n+](C)c1 [[C2C1im][OAc], 1-ethyl-3-methylimidazolium acetate]",effect on growth of the microbe,Acinetobacter sp. 01; 1 mM,does not alter the growth
same,"lateral root initiation, effect of inoculation","Arabidopsis thaliana; 1 mM [C2C1im][OAc], inoculated with A. rhizogenes",no effect
same,mean primary root growth,"Arabidopsis thaliana; 1 mM [C2C1im][OAc], inoculated with A. rhizogenes, 6 days",2.912 cm
same,mean primary root growth,"Arabidopsis thaliana; 1 mM [C2C1im][OAc], inoculated with Acinetobacter sp. 01, 6 days",4.011 cm
same,mean primary root growth,"Arabidopsis thaliana; 1 mM [C2C1im][OAc], uninoculated, 6 days",1.904 cm
same,root growth,"Arabidopsis thaliana; 1 mM, uninoculated",overall reduction in root growth
same,lateral root initiation (effect of treatment),Arabidopsis thaliana; uninoculated,dose dependent reduction
same,primary root growth (effect of treatment),Arabidopsis thaliana; uninoculated,dose dependent reduction
same,effect on growth of the microbe,A. rhizogenes; 1 mM,does not alter the growth
same,microbial growth with the compound as sole carbon source,A. rhizogenes; 1 mM [C2C1im][OAc],Neither IL allows microbial growth
cholinium lysinate [[Ch][Lys]],concentration tolerated by the microbe,Acinetobacter sp. 01; Acinetobacter sp. 01,10 mM
same,"toxicity to mammals, fish, and microbes",[1],low toxicity
same,effect on seedlings transferred to solid media,Arabidopsis thaliana; 0.1 mM,reduced root growth
same,mean lateral root number (lateral root initiation),Arabidopsis thaliana; [4],4.889
same,mean primary root growth,Arabidopsis thaliana; [4],2.241 cm
same,"root growth versus uninoculated, [Ch][Lys]-treated controls","Arabidopsis thaliana; 0.1 mM [Ch][Lys], inoculated with Pool A",do not differ significantly
same,mean primary root growth,"Arabidopsis thaliana; 0.1 mM [Ch][Lys], inoculated with Pool B",2.072 cm
same,mean lateral root number (lateral root initiation),Arabidopsis thaliana; [5],7.069
same,mean primary root growth,Arabidopsis thaliana; [5],0.858 cm
same,primary root growth,"Arabidopsis thaliana; 0.1 mM, uninoculated",significantly inhibit
same,lateral root initiation,"Arabidopsis thaliana; 0.1 mM, uninoculated, 6 days",increase lateral root initiation
same,effect on seedlings transferred to solid media,Arabidopsis thaliana; 5 mM,complete chlorosis and plant death
same,concentration that reduces the root growth,Arabidopsis thaliana; A. thaliana,At least 0.1 mM
same,concentration sufficient to completely inhibit primary root growth,Arabidopsis thaliana; Arabidopsis,0.1 mM
same,"root growth, effect of inoculation","Arabidopsis thaliana; [Ch][Lys] treatment, inoculated with Acinetobacter sp. 01",no significant effect
same,application rate equivalent to the concentration that inhibits primary root growth,Arabidopsis thaliana; equates to 0.1 mM,104 g/ha2
same,estimated appropriate application rate as herbicide,Arabidopsis thaliana; estimate,100-500 g/ha
same,primary root growth (effect of treatment),Arabidopsis thaliana; uninoculated,reduce primary root growth at all concentrations tested
same,root cell morphology phenotype caused by [Ch][Lys],Arabidopsis roots; A. rhizogenes treated roots,abolished
same,root cell morphology,Arabidopsis roots; uninoculated,irregular expansion of epidermal cells of the root apical meristem (RAM) and stimulates formation of ectopic root hairs
same,concentration tolerated by the microbe,A. rhizogenes; A. rhizogenes,10 mM
same,A. rhizogenes growth rate under NaCl,"A. rhizogenes; M9 + 1% w/v dextrose, 400 mM NaCl plus 0.1 mM [Ch][Lys]",partially rescued
same,microbial growth with the compound as sole carbon source,A. rhizogenes; 0.1 mM [Ch][Lys],Neither IL allows microbial growth
same,effect on seedlings transferred to solid media,Sorghum bicolor; 0.1 mM,reduced root growth
same,mean crown root growth,Sorghum bicolor; inoculated with A. rhizogenes,5.028 cm
same,mean lateral root growth,Sorghum bicolor; inoculated with A. rhizogenes,1.051 cm
same,mean crown root growth,Sorghum bicolor; uninoculated,3.267 cm
same,mean lateral root growth,Sorghum bicolor; uninoculated,0.464 cm
same,branching lateral roots and crown root growth,"Sorghum bicolor; 5 mM, over 8 days",almost completely inhibit
same,effect on seedlings transferred to solid media,Sorghum bicolor; 5 mM,complete chlorosis and plant death
same,concentration that reduces the root growth,Sorghum bicolor; S. bicolor,At least 5 mM
